Several values for one entry are separate records, joined by “and”; a condition that tells them apart may be missing. Equal entries are not always repeated. Where two headings read alike, the source gives them in different places.
Legend:
[1] = system: paternal Ube3a-YFP allele; test: High-content imaging of paternal Ube3a-YFP unsilencing in primary cortical neurons; format: cell-based, mouse; conditions: for EC50 / EC20 / maximal fold induction: Mus musculus; for EC20: Table 3, unsilencing the paternal allele of Ube3a-YFP in cultured neurons, 1 nM to 30 μM, read-out: Potency EC20; for unsilencing of paternal Ube3a-YFP in dose-response experiments: cultured Ube3a m+/pYFP neurons
Protocol: In all screening assays, primary cortical neurons from Ube3a-YFP mice are isolated from embryonic day 15.5 animals, and the genotype of animals is determined to identify mice that encode the Ube3a-YFP transgene on the paternal allele. Freshly isolated cortical neurons are seeded into 384 well plates and cultured for 7 days. At day in vitro seven, screening is performed using multiple chemical libraries and compound concentration of 10 μM in 0.2% DMSO vehicle. After 72 h of drug exposure (run in quadruplicate wells), neurons are fixed with 4% para formaldehyde and processed for immunofluorescence using an anti-GFP-Alexa 488 conjugated antibody to enhance the signal of Ube3a-YFP in neurons. For image analyses, individual wells of immunofluorescence-processed plates are imaged fro DAPI and GFP fluorescence using the BD-Pathway 855 high-content imaging microscope. Ube3a-YFP fluorescence intensities in individual neurons are determined in drug-treated wells and normalized to 0.2% DMSO-treated (i.e., vehicle control) wells using custom written macros and algorithms using NIH Image J and Arrayscan Cell Profiler software programs. These image analyses enable masking of nuclei in individual neurons and determination of Ube3a-YFP fluorescence intensity in the nuclei of individual neurons.
For these studies, DIV 7 primary neurons encoding paternal Ube3a-YFP are dose treated with hit compounds across seven orders of magnitude in full and half log molar concentrations (3 pM to 30 μM). Ube3a-YFP fluorescence intensities in living neurons are determined again by high-content imaging microscopy after 72 h treatments. The dose response results are analyzed by least squares sigmoidal dose-response curve fitting models using Graphpad Prism 5.0 (Graphpad Software, Inc.). The calculated EC50 values (potencies) and Y value top plateau (estimated efficacies or Emax) enable comparative analyses of the relative potency and efficacy of the identified compounds.
Primary cortical neurons were isolated from E13.5-16.5 Ube3a-YFP mice. Screening was performed in quadruplicate at DIV7 using multiple chemical libraries and a compound concentration of 10 μM in 0.2% DMSO vehicle. After 72 h of drug exposure, neurons were fixed with 4% paraformaldehyde in PBS for 35 min, permeabilized with 0.3% Triton X-100 in PBS on ice for 30 min, and blocked by 5% goat serum with 0.1% Triton X-100 in PBS at room temperature for 1 hr. Cells were incubated with a rabbit polyclonal antibody to GFP (1:1000, Novus Biologicals, NB600-308) at room temperature for 1 hr and then incubated with Alexa Fluor 488 goat antibody to rabbit IgG (1:200, Invitrogen, A11008) and DAPI (1:10,000, Invitrogen, D-1306) at room temperature for 30 min. Individual wells of immunofluorescence-processed plates were imaged for DAPI or Alexa 488 fluorescence using the BD Pathway 855 high-content imaging microscope with a 488 excitation/515 long pass filter. Antibody-enhanced UBE3A-YFP fluorescence intensities were determined from individual neurons in drug-treated wells and normalized to neurons in wells treated with 0.2% DMSO (vehicle control). Analyses were performed with custom macros and algorithms using NIH Image J and Arrayscan Cell Profiler software programs (Thermo Scientific/Cellomics). These image analyses enabled masking of nuclei in individual neurons and determination of UBE3A-YFP fluorescence intensities in the nuclei of individual neurons (FIG. 16).
DIV7 primary neurons from Ube3a^m+/pYFP mice were dose-treated for 72 h with topoisomerase I and II inhibitors in ten point dose-responses in full and half log molar concentrations (1 nM to 30 μM). Neurons were fixed, processed for immunofluorescence, and UBE3A-YFP fluorescence intensities were again determined by high-content imaging microscopy.

[2] = system: paternal Ube3a-YFP allele in spinal neurons; test: Intrathecal delivery, paternal Ube3a-YFP in spinal cord; format: in vivo, mouse; conditions: for unsilencing of paternal Ube3a-YFP after intrathecal injection: i.t. 5 μl, irinotecan 1000 nmol/day for 5 days, topotecan 200 nmol/day for 6 days
Protocol: A soft cloth is placed over the head and upper body of the animal to keep him calm. The experimenter grasps the pelvic girdle of mouse with his thumb and forefinger. Next, the experimenter traces the spinal column of the mouse with a needle. The disposable 30 gauge ½ inch needle is connected to a 50 ul Luer-hub Hamilton syringe. As long as the experimenter senses the bones of the spinal column, the angle of syringe is lowered at 45 degree to the horizontal. The experimenter inserts the needle 1 mm further to the spinal column. Following the 5 ul injection, the syringe is rotated slightly and removed. […] They are 100, 500 and 1000 nmole. Paternal Ube3a-YFP (+/Ey) mice are used throughout these experiments.
For immunocytochemistry in spinal cord, lumbosacral spinal cord (approximately L1 to S2 and inclusive of the area corresponding to intrathecal injection site) was removed from each mouse and immersion-fixed for 8 h in cold 4% paraformaldehyde/0.1M phosphate buffer (pH 7.4). After a period of cryoprotection in 30% sucrose in 0.1M phosphate buffer, each spinal cord was sectioned on a cryostat at 40 μm. Sections to be stained immediately were collected in PBS; sections to be saved for future study were placed in a PBS/ethylene glycol/glycerol solution and stored at −20° C. Every fourth section was incubated overnight in a mixture containing a chicken IgY to GFP (1:750; Ayes Labs, GFP-1020) and a mouse IgG1 to NeuN (1:250; Millipore, MAB377) and treated the following day with a cocktail containing goat anti-chicken IgY-Alexa 488 (1:200; Invitrogen, A-11039), goat anti-mouse IgG1-Alexa 568 (1:200; Invitrogen, A-21124), and DRAQ5 (1:10,000; Axxora, BOS-889-001). Immunostained sections were mounted from PBS onto SuperFrostPlus Slides (Fisher), which were then air-dried briefly, rehydrated with PBS, and coverslipped with FluoroGel (Electron Microscopy Sciences). For quantification studies, sections were imaged using a Nikon Eclipse 80i with Surveyor mosaic imaging software. For qualitative assessment, sections were imaged as maximal projections on a Zeiss LSM 510.
For cell counting in spinal cord, 14 to 18 sections per mouse in segments corresponding to the injection site were analyzed. Slices were imaged using a Nikon Eclipse 80i microscope equipped with a QimagingRetigaExi high-speed CCD camera system and Surveyor mosaic imaging software using a 10× objective. For qualitative purposes, selected sections were also imaged on a Zeiss LSM 510 confocal microscope. Cells were counted manually by individuals blind to the experimental groups from raw (unprocessed) images using ImageJ and Cellprofiler^35 software.
YFP intensity levels from confocal XYZ image stacks were measured using a semi-automated macro with ImageJ. Individual YFP-positive cells were selected by eye, the criteria being the Z plane having the largest area for each cell. Cell regions were defined by intensity thresholding or manual tracing and the average YFP intensity and percent saturation were calculated for each cell.
Following the injection, the syringe is rotated slightly and removed.

[3] = Cortical neurone, Table 1, unsilencing paternal Ube3a-YFP, cortical neurons, 72 h, read-out: EC50
[4] = Primary cortical neuron, concentration-response curves, 72 hr, n=4, mean±SEM, read-out: EC50 for unsilencing paternal Ube3a-YFP (FIG. 7)

Compound	unsilencing of paternal Ube3a-YFP in the primary screen ([1]; 10 μM for 72 hours, Ube3a m+/pYFP neurons)	EC50 [1, 3] [µM]	EC20 ([1]; Neuron, 72 h) [µM]	EC50 [1, 4] [µM]	unsilencing of paternal Ube3a-YFP in dose-response experiments ([1]; 72 h)	unsilencing of paternal Ube3a-YFP after intrathecal injection [2]	maximal fold induction ([1]; Cortical neurone, 72 h, read-out: Efficacy Emax (fold over control))	maximal fold induction ([1]; Neuron, 72 h, read-out: Efficacy Emax (fold over vehicle))	relative potency versus irinotecan (FIG. 7) ([1]; unsilencing paternal Ube3a-YFP) [times]	relative potency versus irinotecan (Example 16) ([1]; upregulation of paternal UBE3A-YFP in cultured neurons) [×]	number of paternal UBE3A-YFP-positive cells in lumbar spinal cord ([2]; 50 nmol/5 μL i.t. once daily, 10 of 14 days)	expression level of unsilenced paternal UBE3A-YFP versus maternal controls ([2]; i.t. 50 nmol/day for 10 of 14 days)	percentage of UBE3A-YFP+ cells that were NeuN+ ([2]; i.t. 50 nmol/day for 10 of 14 days, paternal Ube3a-YFP mice)	time unsilencing of Ube3a-YFP was maintained after cessation of treatment ([2]; i.t. 50 nmol/day for 10 of 14 days, spinal neurons)	persistence of unsilencing 14 days after cessation ([2]; i.t. 100 nmol/day on 10 of 14 days, 14 days washout)	effectiveness at unsilencing in spinal cord compared with irinotecan ([2]; i.t., FIG. 8 Panels B and C)
CCc1c2c(nc3ccc(OC(=O)N4CCC(N5CCCCC5)CC4)cc13)-c1cc3c(c(=O)n1C2)COC(=O)[C@]3(O)CC [Irinotecan]	upregulated UBE3A-YFP fluorescence	0.994 ± 0.01	0.994 ± 0.013	0.996 ± 0.01	upregulate paternal UBE3A-YFP in a dose- and time-dependent manner	unsilenced the paternal Ube3a-YFP allele in spinal neurons and in DRG neurons	–	–	–	–	–	–	–	–	–	–
CC[C@@]1(O)C(=O)OCc2c1cc1n(c2=O)Cc2cc3c(CN(C)C)c(O)ccc3nc2-1 [Topotecan]	–	0.054 ± 0.0012	0.054 ± 0.0034	0.055 ± 0.0012	upregulate paternal UBE3A-YFP in a dose- and time-dependent manner	unsilenced the paternal Ube3a-YFP allele in spinal neurons and in DRG neurons	2.25 ± 0.07	2.25 ± 0.05	~20	20	significantly increased the number of paternal UBE3A-YFP-positive cells	expressed at levels comparable to maternal UBE3A-YFP controls	> 93% and 93.25%	at least 12 weeks	unsilencing of paternal Ube3a persists	even more effective at unsilencing paternal Ube3a in spinal cord
